Entries after “also recorded” stand apart in the source; their conditions may differ. *1 amine or outer side, *2 acyl side, *3 side chain or, on linkers, in order; H or OH if unused. Where a SMILES comes first, the peptide text is derived from it. [ ]: non-standard residue; d: D form. The star is where a group is joined. NH(4-phenylbutyl) = c1ccc(CCCCN*)cc1; X1 = C[C@H](N[*:1])C(=O)C(=O)[*:2]
Tests used:
Format in all cases: cell-based, human
HEK293T cells = experiment: JC-1 mitochondrial membrane potential assay; details: 5 µM compound 5 or CCCP, at least three hours, compared to DMSO
Description: Staining of cells for the determination of mitochondrial membrane potential was carried out with the JC-1 mitochondrial staining kit (Sigma-Aldrich) according to the kit’s instructions; stained cells were immediately taken to live cell imaging.
(§1) For fixation, cells were incubated for 15 min with 4% formaldehyde (16% formaldehyde diluted in PBS, Thermo Scientific) and washed in PBS. The cover glasses were mounted with Fluoromount-G (Southern Biotech) on microscope slides. All microscopy was performed on an LSM 780 system (Carl Zeiss) with a Plan-APOCHROMAT 63× 1.4NA oil objective (Carl Zeiss) and pinhole settings of 1 AU with the Zeiss ZEN 2010 software. Image processing and analysis was performed using ImageJ (http://rsb.info.nih.gov/ij/). […] Parkin recruitment events to the mitochondria were counted by hand throughout each z-stack and cell. […] JC-1 images were handled as summed intensity z-stack projections, as well as subjected to flatfield correction and subtraction of background before measuring the fluorescence levels normalized to the number of cell nuclei. The fluorescence intensity ratio between the red and green signal was calculated and compared to DMSO as a ratio of 1. Data were evaluated using Excel and GraphPad Prism 6.

PINK1 = PINK1 processing in HEK293 T-REx cells overexpressing PINK1, immunoblot; details: HEK293 T-REx cells overexpressing PINK1, 8 h
Description: Inducible stable Flp-In HEK293 T-REx cells expressing PINK1 were described previously.[33] HEK293 T-REx PINK1 and HEK293T cells were grown in DMEM (Gibco) supplemented with 10% (v/v) fetal bovine serum (ThermoFisher), 1% (v/v) GlutaMAX (Gibco), 1% (v/v) sodium pyruvate (Gibco), 125 μg/mL hygromycin (Invitrogen), and 10 μg/mL blasticidin (Gibco) or DMEM supplemented with 10% (v/v) fetal bovine serum, respectively, at 37 °C in 5% (v/v) CO2. For microscopy, cells were seeded on poly-L-lysine (Sigma)-coated slides. Transient plasmid transfections were performed using 25 kDa linear polyethylenimine (Polysciences). Plasmid (100 ng) encoding HA-Parkin-IRES-GFP, mito-mCherry or Parkin-mEGFP, or 500 ng plasmid encoding PGAM5-FLAG were used per 6-well. Total transfected DNA was 2 μg/well. For siRNA transfection, 2 × 10^5 cells were seeded per 6-well and on the next day transfected with 20 nM siRNA-oligonucleotide using lipofectamine RNAiMAX (ThermoFisher). Cells were analyzed 27 h post-transfection or five days post-siRNA-transfection. HEK293 T-REx PINK1 cells were induced with 0.3 μg/mL doxycycline for 24 h before further processing. […] For quantification, ImageJ was used (http://rsb.info.nih.gov/ij/). Immunoblots shown are representative of at least three independent experiments and were evaluated using Excel and GraphPad Prism 9 (GraphPad Software, Inc.).

Parkin = Parkin recruitment to mitochondria and mitochondrial morphology, fluorescence microscopy; details: HEK293 T-REx PINK1 cells, 3 h; 5 μM compound 5, CCCP or Antimycin A, vs DMSO
Description: Inducible stable Flp-In HEK293 T-REx cells expressing PINK1 were described previously.[33] HEK293 T-REx PINK1 and HEK293T cells were grown in DMEM (Gibco) supplemented with 10% (v/v) fetal bovine serum (ThermoFisher), 1% (v/v) GlutaMAX (Gibco), 1% (v/v) sodium pyruvate (Gibco), 125 μg/mL hygromycin (Invitrogen), and 10 μg/mL blasticidin (Gibco) or DMEM supplemented with 10% (v/v) fetal bovine serum, respectively, at 37 °C in 5% (v/v) CO2. For microscopy, cells were seeded on poly-L-lysine (Sigma)-coated slides. Transient plasmid transfections were performed using 25 kDa linear polyethylenimine (Polysciences). Plasmid (100 ng) encoding HA-Parkin-IRES-GFP, mito-mCherry or Parkin-mEGFP, or 500 ng plasmid encoding PGAM5-FLAG were used per 6-well. Total transfected DNA was 2 μg/well. For siRNA transfection, 2 × 10^5 cells were seeded per 6-well and on the next day transfected with 20 nM siRNA-oligonucleotide using lipofectamine RNAiMAX (ThermoFisher). Cells were analyzed 27 h post-transfection or five days post-siRNA-transfection. HEK293 T-REx PINK1 cells were induced with 0.3 μg/mL doxycycline for 24 h before further processing. Hoechst staining (1 μg/mL) was done immediately before adding treatment to the cells. Treatments were administered for the indicated times before processing; CCCP (Sigma) was always used as 10 μM for 3 h and Antimycin A (Sigma) as 30 μM for 3 h.
as §1, with “slides.” for “slides. All microscopy was performed on an LSM 780 system (Carl Zeiss) with a Plan-APOCHROMAT 63× 1.4NA oil objective (Carl Zeiss) and pinhole settings of 1 AU with the Zeiss ZEN 2010 software. Image processing and analysis was performed using ImageJ (http://rsb.info.nih.gov/ij/).”

Q: `CC(=O)N[C@@H](C)C(=O)N[C@H](C(=O)N[C@@H](Cc1ccccc1)C(=O)N[C@@H](CC(C)C)C(=O)N[C@@H](C)C(=O)C(=O)NCCCCc1ccccc1)C(C)C` [compound 5] (Ac-AVFL[X1]-{NH(4-phenylbutyl)}) was tested. Which “Effect on mitochondrial membrane potential (JC-1 aggregate to monomer ratio)” value (HEK293T cells) did it give?
A: Its value is “does not depolarize; also recorded: does not significantly alter the membrane potential”.

Q: What about the “Effect on cleavage and stabilization of overexpressed PINK1” value (PINK1) of the same molecule?
A: The value was “dose-dependent stabilization of PINK1–66”.

Q: What about the “Effect on cleavage and stabilization of overexpressed PINK1” value (PINK1; listed as Compound 5) of the same molecule?
A: The value was “inhibits the PARL-cleavage of overexpressed PINK1 in a dose-dependent manner”.

Q: What about the “Recruitment of Parkin-mEGFP to mitochondria (microscopy)” value (Parkin) of the same molecule?
A: The value was “significant recruitment of mEGFP-tagged Parkin to the mitochondria”.

Reference: PMC9841525, “Chemical Blockage of the Mitochondrial Rhomboid Protease PARL by Novel Ketoamide Inhibitors Reveals Its Role in PINK1/Parkin-Dependent Mitophagy” (Journal of Medicinal Chemistry, 2022)
